Paper PMC11345766, “Computational Design of Pore-Forming Peptides with Potent Antimicrobial and Anticancer Activities” (Journal of Medicinal Chemistry, 2024)

Experiments:
[1] = Calcein dye leakage assay from LUVs; type: biochemical; conditions: P:L 1:100; pH 7.4
From the text: To verify the pore-forming mechanism of action of the designed AMPs, we performed a calcein leakage assay. […] These lipid vesicles were used as simple mimics of bacterial membranes.[58] At the lowest tested peptide-to-lipid (P:L) ratio of 1:100 (mol/mol), three mutants (LP18, LP26, and LP40) caused >90% leakage, which was higher than the leakage caused by LP1 (87%). […] At the same concentration, LP23 caused leakage equivalent to that caused by LP1. Other mutants had lower leakage activity. At a higher P:L ratio of 1:50, all the abovementioned mutants caused 100% leakage, equivalent to that caused by LP1.
Pore-forming activity was tested using a dye leakage assay measuring the leakage of self-quenching fluorescent dye calcein from POPC:POPG (1:1 mol/mol) LUVs. DiD was mixed with lipids (1:500 mol/mol), and lipid film was created by evaporating chloroform, followed by 4 h of desiccation. Dried lipid film was dissolved in calcein buffer (35 mM calcein, 25 mM NaH2PO4·H2O and Na2HPO4·7H2O (3:7 mol/mol), 20 mM NaCl, and 1 mM EDTA). After 10 freeze–thaw cycles, the sample was extruded 50 times through a 100 nm pore size polycarbonate membrane filter. Free calcein in solution was removed using a HiTrap Desalting column. The concentrations of LUVs and peptides were adjusted to 0.02 and 0.1 mM, respectively, in PBS (25 mM NaH2PO4·H2O and Na2HPO4·7H2O (3:7 mol/mol), 100 mM NaCl, and 1 mM EDTA). The investigated P/L ratio was from 1:100 to 1:10 (mol/mol). Fluorescence intensity was measured using a HORIBA Scientific Jobin Yvon FluoroLog-3 Modular Spectrofluorometer (USA). Excitation and emission wavelengths were set to 495 and 520 nm, respectively. Triton X-100 10% caused 100% leakage used for normalization.

[2] = test system: E. coli (TOP10); assay: Broth microdilution antimicrobial susceptibility assay; type: cell-based, Escherichia coli; conditions: 24 h, MHB
Outline: (§1)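 Bacteria were grown on MHA for 24 h, subcultured in MHB for 6 h at 37 °C and diluted to 10^6 CFU/mL. Compounds were serially diluted from 50 to 0.1 μM, inoculated and incubated for 24 h at 37 °C. MIC was the lowest concentration with no visible turbidity.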

[3] = test system: S. carnosus (CCM 4838T); assay: microbe, parasite or virus in culture; type: cell-based, Staphylococcus carnosus; conditions: CCM 4838, 24 h; read-out: Antimicrobial activity (MIC) S. carnosus (CCM 4838T)
Outline: as §1

[4] = test system: murine macrophages RAW 264.7; conditions: 24 h
Method: Cytotoxicity against human immortalized keratinocytes HaCaT, human alveolar basal epithelial A549 (derived from adenocarcinoma), and murine macrophages RAW 264.7 was tested using MTT [3-(4,5-dimethylthiazol-2-yl)-2,5-diphenyltetrazolium bromide] assay. Cells were cultured in Dulbecco’s modified Eagle’s medium (DMEM) containing 4 mM glutamine for HaCaT, or 2 mM glutamine for A549 and RAW 264.7 cells, supplemented with 10% heat-inactivated fetal bovine serum (FBS) and antibiotics (0.1 mg/mL penicillin and streptomycin). Nonessential amino acids (NEAA) and sodium pyruvate (1 mM) were added for macrophages. Cell lines were grown in 25 and 75 cm^2 flasks at 37 °C in a humidified atmosphere with 5% CO2. Cells were suspended in DMEM, containing glutamine, NEAA, and sodium pyruvate (as described above), supplemented with 2% FBS, plated in 96-well plates at 4 × 10^4 cells/well, and incubated at 37 °C in a 5% CO2 atmosphere. After overnight incubation, the medium was replaced with fresh DMEM supplemented with peptides at different concentrations: 2, 4, 8, 16, 32, 64, and 128 μM. Negative controls were cells without peptides. After 24 h of peptide treatment at 37 °C in a 5% CO2 atmosphere, medium was replaced with Hank’s buffer (136 mM NaCl, 0.34 mM Na2HPO4, 0.44 mM KH2PO4, 5.4 mM KCl, 4.1 mM NaHCO3, supplemented with 5.5 mM D-glucose) containing 0.5 mg/mL MTT. Mitochondrial dehydrogenases converted soluble yellow dye MTT to insoluble purple formazan. After 4 h of incubation, acidified isopropanol was added to dissolve formazan crystals and measured for OD570 using Tecan microplate reader Infinite M200 (Salzburg, Austria).

[5] = test system: A. baumannii (ATCC 19606); assay: Neutropenic murine deep thigh infection model; type: in vivo, mouse; conditions: single intraperitoneal dose at 10 times the MIC; four days after treatment
From the text: Mice were euthanized 4 days postinfection (day 8).
Each experimental group comprised three mice.

[6] = test system: cytoplasmic membranes of ESKAPEE pathogens; assay: Cytoplasmic membrane depolarization assay, DiSC3-(5); type: cell-based; conditions: both Gram-negative and Gram-positive bacteria; peptides at their MICs
Method: First, we investigated the ability of the peptides to depolarize the cytoplasmic membranes of ESKAPEE pathogens. […] Bacteria were incubated with 3,3′-dipropylthiadicarbocyanine iodide [DiSC3-(5)] dye, and the dye fluorescence was measured after peptide treatment. DiSC3-(5) is sensitive to transmembrane potential changes. It accumulates in the cytoplasmic membrane with quenched fluorescence, and when the membrane potential becomes unbalanced, the dye molecules translocate to the outside environment, resulting in increased fluorescence.[56] The three potent AMPs (LP1, LP18, and LP28) and the H-variant (LP40) depolarized the cytoplasmic membrane of both Gram-negative and Gram-positive bacteria at their MICs.
The cytoplasmic membrane depolarization activity of the peptides was determined by measuring the fluorescence of membrane-potential-sensitive dye DiSC3-(5). A. baumannii ATCC 19606, E. coli ATCC 11775, K. pneumoniae ATCC 13883, P. aeruginosa PAO1, S. aureus ATCC 12600, and E. faecium ATCC 700221 were grown to mid log phase (OD600 = 0.5) at 37 °C and then centrifuged (10,000 rpm at 4 °C for 10 min). Cells were washed twice with a buffer containing 20 mM glucose and 5 mM HEPES (pH 7.2) and diluted 1:10 (OD600 = 0.05) in a buffer with 0.1 M KCl, […], and 5 mM HEPES (pH 7.2). Fluorescence was recorded at the excitation and emission wavelengths of 622 and 670 nm, respectively. Bacterial solution (100 μL) was incubated for 15 min with 20 nM of DiSC3-(5) until fluorescence reached a plateau. Changes in transmembrane potential were monitored by observing the difference in fluorescence emission intensity after adding peptides (100 μL at their MICs) for 45 min. Assay was performed in triplicate.

[7] = test system: E. faecium (ATCC 700221); conditions: resistant to vancomycin
From the text: (§2) The effect of net charge was further investigated against six reference strains of ESKAPEE pathogens (Figure 3b).

[8] = test system: A. baumannii (ATCC 19606); conditions: clinically relevant strain
From the text: as §2

[9] = test system: E. coli AIC221; conditions: Figure 3c
From the text: as §2

[10] = test system: A. baumannii (Z13); conditions: Z13, 18 h
[11] = single intraperitoneal dose at 10 times the MIC
Method: Neutropenic mice were infected intramuscularly (in the right thigh) with 10^6 cells per mL of Gram-negative A. baumannii (ATCC 19606).
(a) Schematic of the deep thigh infection model in which bacteria are injected intramuscularly at day 4 and peptides are administered intraperitoneally also at day 4 to assess their anti-infective activity. Mice were euthanized 4 days postinfection (day 8). Each group consisted of six mice (n = 6), and the bacterial loads used to infect the mice derived from three different inocula. […] Polymyxin B (0.006 mg/kg) and levofloxacin (0.014 mg/kg) were used as the reference antibiotics. Statistical significance was done using one-way ANOVA followed by Dunnett’s test. Violin plots represent the median, upper quartile, and lower quartile. (c) Mouse weight was monitored to exclude possible toxic effects of the peptides.
Six-week-old female CD-1 mice (obtained from Charles River; stock number 18679700-022) underwent neutropenia induction via two intraperitoneal doses of cyclophosphamide (150 mg kg^–^1) administered with a 72 h interval. One day later, the mice received an intramuscular injection containing A. baumannii ATCC 19606 (10^6 CFU mL^–1) in the right thigh. Bacteria were cultured in LB broth, washed twice with PBS (pH 7.4), and resuspended to the desired concentration. […] Polymyxin B (0.006 mg/kg) and levofloxacin (0.014 mg/kg) were used as the reference antibiotics. Prior to each injection, mice were anesthetized with isoflurane and their respiratory rate and pedal reflexes were monitored. Subsequently, we observed the infection establishment and euthanized the mice. The infected area was excised 4 days postinfection (i.e., 8 days after the beginning of the experiment), homogenized using a bead beater for 20 min (25 Hz), and 10-fold serially diluted for CFU quantification on MacConkey agar plates. Each experimental group comprised three mice. All experiments were conducted blindly, and no animals were excluded from the analysis. Statistical significance was assessed using one-way ANOVA followed by Dunnett’s test on log10-transformed data to mitigate outlier effects; p values are reported for each group, with all groups compared to the untreated control group.

Which “Calcein leakage (%) from LUVs at P:L 1:100 (mol/mol)” value [1] does the source give for “H-KKKKKLKKILKKLFQFINQLDNQLQDIKKKKK-OH [LP28]” here?
Its value is 74.0 ± 6.7%.

And the MIC [2]?
The MIC was 0.4 µM.

What about the MIC [3] of the same substance?
Its MIC is 0.4 µM.

What about the IC50 [4] of the same substance?
The IC50 was 31 µM.

And the “Reduction of bacterial load” value [5]?
The value was “did not significantly reduce the bacterial load”.

And the “Depolarization of the cytoplasmic membrane” value [6]?
The value was “depolarized”.

What about the MIC [7] of the same substance?
Its MIC is 0.8 µM.

And the MIC [8]?
Its MIC is 0.8 µM.

And the MIC [9]?
The MIC was 0.8 µM.

What about the MIC [10] of the same substance?
Its MIC is 1 µM.

And the “Change in mouse weight” value [11]?
Its value is “no significant change in mouse weight”.
